The first test has as its system Type 2-diabetes model mice KK-Ay/Ta Jc1. As to the kind of experiment: Study on hyperlipemia-ameliorating effects (plasma neutral fat, total cholesterol, free fatty acid, visceral fat, body weight). It is filed as in vivo. The following applies: 0.05% by mass in feed CE2, 5 days, overnight fast; control group 52.3 ± 4.2. The text has this: Protopanaxatriol (PPT) (product of Funakoshi Corporation), panaxatriol (PT) (product of Funakoshi Corporation), protopanaxadiol (PPD) (product of Funakoshi Corporation) and panaxadiol (PD) (product of Funakoshi Corporation) were each added to feed CE2 (product of CLEA Japan, Inc.) so that the concentration thereof was 0.05% by mass.
Similarly, the strong acid-treated Panax notoginseng product (Production Example 1) and Panax notoginseng powder (product of MATSUURA YAKUGYO CO., LTD.) were each added to feed CE2 (product of CLEA Japan, Inc.) so that the concentration thereof was 1.0% by mass.
Feed CE2 (product of CLEA Japan, Inc.) containing no other additives was used as feed for the control group.
Type 2-diabetes model mice KK-Ay/Ta Jc1 (male, 4 weeks old, 8 mice/group, product of CLEA Japan, Inc.) were preliminarily bred for 7 days. Thereafter, they were bred for 5 days with the above-prepared feed CE2, containing no other additives or containing PPT, PT, PPD, PD, the strong acid-treated Panax notoginseng product or Panax notoginseng powder.
The mice bred for 5 days in the above-described manner were measured for the body weight after an overnight fast. The blood was collected from them. The collected blood sample was used to measure the plasma neutral-fat level with […] (product of Wako Pure Chemical Industries, Ltd.), the plasma total-cholesterol level with CHOLESTEROL E-TEST WAKO (product of Wako Pure Chemical Industries, Ltd.) and the plasma free-fatty-acid level with […] (product of Wako Pure Chemical Industries, Ltd.). In addition, retroperitoneal fat, fat surrounding the epididymis, and fat surrounding the kidney were sampled and weighed. The total mass thereof was used as the visceral fat level. The above-measured plasma neutral-fat level, plasma total-cholesterol level, plasma free-fatty-acid level, visceral fat level and body weight were verified using the Dunnett's multiple test. A p value of 0.05 or lower was considered statistically significant.
With `CC(C)=CCC[C@](C)(O)[C@H]1CC[C@]2(C)[C@@H]1[C@H](O)C[C@@H]1[C@@]3(C)CC[C@H](O)C(C)(C)[C@@H]3[C@@H](O)C[C@]12C` [PPT, Protopanaxatriol], the “Body weight (average g/±SD)” value worked out at 45.3 ± 2.2 g.
On the same count and under the same terms, then `CC1(C)CCC[C@](C)([C@H]2CC[C@]3(C)[C@@H]2[C@H](O)C[C@@H]2[C@@]4(C)CC[C@H](O)C(C)(C)[C@@H]4CC[C@]23C)O1` [PD, panaxadiol], with 47.3 ± 1.9 g; and `CC1(C)CCC[C@](C)([C@H]2CC[C@]3(C)[C@@H]2[C@H](O)C[C@@H]2[C@@]4(C)CC[C@H](O)C(C)(C)[C@@H]4[C@@H](O)C[C@]23C)O1` [PT, panaxatriol], with 43.9 ± 2.8 g; and `CC(C)=CCCC(C)(O)[C@H]1CC[C@]2(C)[C@@H]1[C@H](O)C[C@@H]1[C@@]3(C)CC[C@H](O)C(C)(C)[C@@H]3CC[C@]12C` (stereo in doubt) [PPD, protopanaxadiol], with 46.8 ± 2.6 g.

Staying with this test, now noted: in words; 0.05% (aglycons) or 1.0% by mass (products) in feed, 5 days.
In the case of `CC(C)=CCC[C@](C)(O)[C@H]1CC[C@]2(C)[C@@H]1[C@H](O)C[C@@H]1[C@@]3(C)CC[C@H](O)C(C)(C)[C@@H]3[C@@H](O)C[C@]12C` [PPT, Protopanaxatriol], the “cholesterol level-regulating effect compared with the control group” value is “significantly superior to that of the control group”, the “free fatty acid level-regulating effect compared with the control group” value is reported as “significantly superior to that of the control group”, the “reduction in body weight compared with the control group” value (“reduction in body weight” below) was “significant reduction in body weight” and the “reduction in the visceral fat level compared with the control group” value (shortened to “reduction in the visceral fat level”) is recorded as “significant reduction in the visceral fat level”.
Turning to `CC1(C)CCC[C@](C)([C@H]2CC[C@]3(C)[C@@H]2[C@H](O)C[C@@H]2[C@@]4(C)CC[C@H](O)C(C)(C)[C@@H]4CC[C@]23C)O1` [PD, panaxadiol], the “cholesterol level-regulating effect compared with the control group” value is reported as “significantly superior to that of the control group”, the “free fatty acid level-regulating effect compared with the control group” value was “significantly superior to that of the control group”, the “reduction in body weight” value is “significant reduction in body weight” and the “reduction in the visceral fat level” value is given as “significant reduction in the visceral fat level”.
As for `CC1(C)CCC[C@](C)([C@H]2CC[C@]3(C)[C@@H]2[C@H](O)C[C@@H]2[C@@]4(C)CC[C@H](O)C(C)(C)[C@@H]4[C@@H](O)C[C@]23C)O1` [PT, panaxatriol], the “cholesterol level-regulating effect compared with the control group” value was “significantly superior to that of the control group”, the “free fatty acid level-regulating effect compared with the control group” value was “significantly superior to that of the control group”, the “reduction in body weight” value is on record as “significant reduction in body weight” and the “reduction in the visceral fat level” value is recorded as “significant reduction in the visceral fat level”.
Take `CC(C)=CCCC(C)(O)[C@H]1CC[C@]2(C)[C@@H]1[C@H](O)C[C@@H]1[C@@]3(C)CC[C@H](O)C(C)(C)[C@@H]3CC[C@]12C` (stereo in doubt) [PPD, protopanaxadiol]: the “cholesterol level-regulating effect compared with the control group” value is given as “significantly superior to that of the control group”, the “free fatty acid level-regulating effect compared with the control group” value is reported as “significantly superior to that of the control group”, the “reduction in body weight” value is given as “significant reduction in body weight” and the “reduction in the visceral fat level” value is given as “significant reduction in the visceral fat level”.

The test is the same for the next values; noted with them: in words; 0.05% (aglycons) or 1.0% by mass (products) in feed, 5 days; Dunnett's test.
In the case of `CC(C)=CCC[C@](C)(O)[C@H]1CC[C@]2(C)[C@@H]1[C@H](O)C[C@@H]1[C@@]3(C)CC[C@H](O)C(C)(C)[C@@H]3[C@@H](O)C[C@]12C` [PPT, Protopanaxatriol], the “neutral fat level-regulating effect compared with the control group” value was “significantly superior to that of the control group”.
Consider `CC1(C)CCC[C@](C)([C@H]2CC[C@]3(C)[C@@H]2[C@H](O)C[C@@H]2[C@@]4(C)CC[C@H](O)C(C)(C)[C@@H]4CC[C@]23C)O1` [PD, panaxadiol], for which the “neutral fat level-regulating effect compared with the control group” value was “significantly superior to that of the control group”.
Same read-out and setting: for `CC1(C)CCC[C@](C)([C@H]2CC[C@]3(C)[C@@H]2[C@H](O)C[C@@H]2[C@@]4(C)CC[C@H](O)C(C)(C)[C@@H]4[C@@H](O)C[C@]23C)O1` [PT, panaxatriol] the value was “significantly superior to that of the control group”; for `CC(C)=CCCC(C)(O)[C@H]1CC[C@]2(C)[C@@H]1[C@H](O)C[C@@H]1[C@@]3(C)CC[C@H](O)C(C)(C)[C@@H]3CC[C@]12C` (stereo in doubt) [PPD, protopanaxadiol], “significantly superior to that of the control group”.

The same test, now with this note: plasma; 0.05% by mass in feed CE2, 5 days, overnight fast; control group 407.3 ± 20.9.
Consider `CC(C)=CCC[C@](C)(O)[C@H]1CC[C@]2(C)[C@@H]1[C@H](O)C[C@@H]1[C@@]3(C)CC[C@H](O)C(C)(C)[C@@H]3[C@@H](O)C[C@]12C` [PPT, Protopanaxatriol], for which the “Neutral fat level (average mg/dL ± SD)” value came to 138.5 ± 25.3 mg/dL.
In the case of `CC1(C)CCC[C@](C)([C@H]2CC[C@]3(C)[C@@H]2[C@H](O)C[C@@H]2[C@@]4(C)CC[C@H](O)C(C)(C)[C@@H]4CC[C@]23C)O1` [PD, panaxadiol], the “Neutral fat level (average mg/dL ± SD)” value amounted to 180.7 ± 34.2 mg/dL.
Same read-out and setting: for `CC1(C)CCC[C@](C)([C@H]2CC[C@]3(C)[C@@H]2[C@H](O)C[C@@H]2[C@@]4(C)CC[C@H](O)C(C)(C)[C@@H]4[C@@H](O)C[C@]23C)O1` [PT, panaxatriol] the value was 163 ± 32.8 mg/dL; for `CC(C)=CCCC(C)(O)[C@H]1CC[C@]2(C)[C@@H]1[C@H](O)C[C@@H]1[C@@]3(C)CC[C@H](O)C(C)(C)[C@@H]3CC[C@]12C` (stereo in doubt) [PPD, protopanaxadiol], 151.4 ± 26.9 mg/dL.

Staying with this test, now noted: plasma; 0.05% by mass in feed CE2, 5 days; control group 1.95 ± 0.3.
In the case of `CC(C)=CCC[C@](C)(O)[C@H]1CC[C@]2(C)[C@@H]1[C@H](O)C[C@@H]1[C@@]3(C)CC[C@H](O)C(C)(C)[C@@H]3[C@@H](O)C[C@]12C` [PPT, Protopanaxatriol], the “Free fatty acid level (average mEq/L ± SD)” value came out at 0.93 ± 0.08 mEq/L.
On to `CC1(C)CCC[C@](C)([C@H]2CC[C@]3(C)[C@@H]2[C@H](O)C[C@@H]2[C@@]4(C)CC[C@H](O)C(C)(C)[C@@H]4CC[C@]23C)O1` [PD, panaxadiol], for which the “Free fatty acid level (average mEq/L ± SD)” value was 1.04 ± 0.12 mEq/L.
Take `CC1(C)CCC[C@](C)([C@H]2CC[C@]3(C)[C@@H]2[C@H](O)C[C@@H]2[C@@]4(C)CC[C@H](O)C(C)(C)[C@@H]4[C@@H](O)C[C@]23C)O1` [PT, panaxatriol]: the “Free fatty acid level (average mEq/L ± SD)” value was determined as 0.84 ± 0.07 mEq/L.
As for `CC(C)=CCCC(C)(O)[C@H]1CC[C@]2(C)[C@@H]1[C@H](O)C[C@@H]1[C@@]3(C)CC[C@H](O)C(C)(C)[C@@H]3CC[C@]12C` (stereo in doubt) [PPD, protopanaxadiol], the “Free fatty acid level (average mEq/L ± SD)” value came out at 0.81 ± 0.08 mEq/L.

The same test, now with this note: plasma; 0.05% by mass in feed CE2, 5 days; control group 195.5 ± 10.7.
Take `CC(C)=CCC[C@](C)(O)[C@H]1CC[C@]2(C)[C@@H]1[C@H](O)C[C@@H]1[C@@]3(C)CC[C@H](O)C(C)(C)[C@@H]3[C@@H](O)C[C@]12C` [PPT, Protopanaxatriol]: the “Total cholesterol level (average mg/dL ± SD)” value is given as 128.3 ± 17.8 mg/dL.
As to `CC1(C)CCC[C@](C)([C@H]2CC[C@]3(C)[C@@H]2[C@H](O)C[C@@H]2[C@@]4(C)CC[C@H](O)C(C)(C)[C@@H]4CC[C@]23C)O1` [PD, panaxadiol], the “Total cholesterol level (average mg/dL ± SD)” value worked out at 101.5 ± 15.6 mg/dL.
The same measure, in the same setting: then `CC1(C)CCC[C@](C)([C@H]2CC[C@]3(C)[C@@H]2[C@H](O)C[C@@H]2[C@@]4(C)CC[C@H](O)C(C)(C)[C@@H]4[C@@H](O)C[C@]23C)O1` [PT, panaxatriol], with 102.9 ± 16.7 mg/dL; and `CC(C)=CCCC(C)(O)[C@H]1CC[C@]2(C)[C@@H]1[C@H](O)C[C@@H]1[C@@]3(C)CC[C@H](O)C(C)(C)[C@@H]3CC[C@]12C` (stereo in doubt) [PPD, protopanaxadiol], with 123.2 ± 19.6 mg/dL.

The same test, now with this note: retroperitoneal + epididymal + perirenal fat; 0.05% by mass in feed CE2, 5 days; control group 8.2 ± 1.0.
Take `CC(C)=CCC[C@](C)(O)[C@H]1CC[C@]2(C)[C@@H]1[C@H](O)C[C@@H]1[C@@]3(C)CC[C@H](O)C(C)(C)[C@@H]3[C@@H](O)C[C@]12C` [PPT, Protopanaxatriol]: the “Visceral fat level (average g ± SD)” value amounted to 5.5 ± 1.3 g.
Still for that read-out and setting: then `CC1(C)CCC[C@](C)([C@H]2CC[C@]3(C)[C@@H]2[C@H](O)C[C@@H]2[C@@]4(C)CC[C@H](O)C(C)(C)[C@@H]4CC[C@]23C)O1` [PD, panaxadiol], with 5.5 ± 1.6 g; and `CC(C)=CCCC(C)(O)[C@H]1CC[C@]2(C)[C@@H]1[C@H](O)C[C@@H]1[C@@]3(C)CC[C@H](O)C(C)(C)[C@@H]3CC[C@]12C` (stereo in doubt) [PPD, protopanaxadiol], with 5.9 ± 1.3 g.
